From ChEMBL document CHEMBL5209574, “Fluo-8 based assay for SLC24A4 using HEK293 JumpIn SLC24A4 OE cells” (2022)

Target: T1, Sodium/potassium/calcium exchanger 4 (Homo sapiens, UniProt Q8NFF2)
T1 sequence (Q8NFF2 whole entry): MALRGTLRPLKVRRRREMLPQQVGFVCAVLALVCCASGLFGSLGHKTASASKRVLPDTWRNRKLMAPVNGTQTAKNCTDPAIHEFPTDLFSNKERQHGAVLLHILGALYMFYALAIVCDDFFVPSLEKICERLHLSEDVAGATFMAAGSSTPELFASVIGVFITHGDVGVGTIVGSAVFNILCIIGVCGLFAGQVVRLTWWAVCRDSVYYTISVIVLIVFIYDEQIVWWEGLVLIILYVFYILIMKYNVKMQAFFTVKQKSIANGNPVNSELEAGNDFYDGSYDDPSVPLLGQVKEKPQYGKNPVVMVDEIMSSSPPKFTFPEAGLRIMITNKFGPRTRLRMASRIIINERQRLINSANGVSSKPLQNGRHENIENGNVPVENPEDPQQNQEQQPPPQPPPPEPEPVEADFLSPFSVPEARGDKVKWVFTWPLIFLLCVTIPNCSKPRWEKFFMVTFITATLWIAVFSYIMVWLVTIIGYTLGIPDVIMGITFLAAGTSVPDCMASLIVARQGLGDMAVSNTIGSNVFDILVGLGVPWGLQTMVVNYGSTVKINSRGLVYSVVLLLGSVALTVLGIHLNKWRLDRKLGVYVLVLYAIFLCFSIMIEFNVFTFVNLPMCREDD
Assay: Substrate uptake by the Sodium/Potassium/Calcium Exchanger 4 (NCKX4, SLC24A4) as assessed by Screen Questtrade mark Fluo-8 NW calcium assay kit in HEK-293 JumpIN-SLC24A4 cells (PubChem AID: 1794814)
Format: functional, cell-based, HEK293

EC50: 174 mM
Structure (SMILES): [Cl-].[K+] [POTASSIUM CHLORIDE]
